In patent US6784137B2, “6-aryl-4-aminopicolinates and their use as herbicides” (Dow AgroSciences LLC, priority 2001, dated 2004):

SMILES	melting point
COC(=O)c1nc(-c2ccc(Cl)c(F)c2)cc(N)c1Cl [Compound 61, Methyl 4-amino-3-chloro-6-(4-chloro-3-fluorophenyl)pyridine-2-carboxylate]	149 to 151 °C
COC(=O)c1nc(-c2ccc(Cl)c(Cl)c2)cc(N)c1Cl [Compound 40, Methyl 4-amino-3-chloro-6-(3,4-dichlorophenyl)pyridine-2-carboxylate]	170 °C
COC(=O)c1nc(-c2cccc(OC)c2)cc(N)c1Cl [Compound 24, Methyl 4-amino-3-chloro-6-(3-methoxyphenyl)pyridine-2-carboxylate]	122 to 123 °C
CCCCOCCOC(=O)c1nc(-c2ccc(Cl)cc2)c(F)c(N)c1Cl [Compound 245, 2-Butoxyethyl 4-amino-3-chloro-5-fluoro-6-(4-chlorophenyl)pyridine-2-carboxylate]	103 to 104 °C
COC(=O)c1nc(-c2ccc(Cl)cc2OC)cc(NC(C)=O)c1Cl [Compound 66, Methyl 4-acetamido-3-chloro-6-(4-chloro-2-methoxyphenyl)pyridine-2-carboxylate]	176 to 178 °C
Nc1cc(-c2nc3ccccc3o2)nc(C(=O)O)c1Cl [Compound 226, 4-Amino-3-chloro-6-(2-benzoxazolyl)pyridine-2-carboxylic acid]	262 °C (dec.)
COc1ccc(OC)c(-c2cc(N)c(Cl)c(C(=O)O)n2)c1 [Compound 194, 4-Amino-3-chloro-6-(2,5-dimethoxyphenyl)pyridine-2-carboxylic acid]	185 to 186 °C
Nc1cc(-c2cccc(C(F)(F)F)c2)nc(C(=O)O)c1Cl [Compound 157, 4-Amino-3-chloro-6-[3-(trifluoromethyl)phenyl]pyridine-2-carboxylic acid]	175 to 176 °C
Nc1cc(-c2ccsc2)nc(C(=O)O)c1Cl [Compound 216, 4-Amino-3-chloro-6-(3-thienyl)pyridine-2-carboxylic acid]	184 °C
Nc1cc(-c2cc(Cl)ccc2Cl)nc(C(=O)O)c1Cl [Compound 177, 4-Amino-3-chloro-6-(2,5-dichlorophenyl)pyridine-2-carboxylic acid]	213 to 215 °C
Nc1c(Cl)c(C(=O)O)nc(-c2cccs2)c1Cl [Compound 208, 4-Amino-3,5-dichloro-6-(2-thienyl)pyridine-2-carboxylic acid]	144 °C
COC(=O)c1nc(-c2ccsc2)cc(N)c1Cl [Compound 122, Methyl 4-amino-3-chloro-6-(3-thienyl)pyridine-2-carboxylate]	129 °C
Cc1cc(F)c(-c2cc(N)c(Cl)c(C(=O)O)n2)cc1Cl [Compound 192, 4-Amino-3-chloro-6-(5-chloro-2-fluoro-4-methylphenyl)pyridine-2-carboxylic acid]	173 to 175 °C
Nc1cc(-c2ccc(Cl)cc2C(F)(F)F)nc(C(=O)O)c1Cl [Compound 182, 4-Amino-3-chloro-6-(4-chloro-2-(trifluoromethyl)phenyl)pyridine-2-carboxylic acid]	178 to 180 °C
COC(=O)c1nc(-c2cnn(C)c2)cc(NC(C)=O)c1Cl [Compound 87, Methyl 4-acetamido-3-chloro-6-(1-methyl-1H-pyrazol-4-yl)pyridine-2-carboxylate]	177 to 178 °C
COC(=O)c1nc(-c2ccc(OC)c(C)c2)cc(N)c1Cl [Compound 80, Methyl 4-amino-3-chloro-6-(4-methoxy-3-methylphenyl)pyridine-2-carboxylate]	158 °C
COC(=O)c1nc(-c2nnnn2C)cc(N)c1Cl [Compound 10, Methyl 4-amino-3-chloro-6-(1-methyl-1H-tetrazol-5-yl)pyridine-2-carboxylate]	239 to 241 °C
Nc1cc(-c2cncnc2)nc(C(=O)O)c1Cl [Compound 228, 4-Amino-3-chloro-6-(5-pyrimidinyl)pyridine-2-carboxylic acid]	180 °C
CCOC(=O)c1nc(-c2ccc(C)cc2)cc(N)c1Cl [Compound 263, Ethyl 4-amino-3-chloro-6-(4-methylphenyl)pyridine-2-carboxylate]	129 to 130 °C

Next, values leading:

melting point	SMILES
119 to 120 °C	COC(=O)c1nc(-c2ccc(OC(F)(F)F)cc2)cc(N)c1Cl [Compound 56, Methyl 4-amino-3-chloro-6-[4-(trifluoromethoxy)phenyl]pyridine-2-carboxylate]
175 to 177 °C	Nc1c(Cl)c(C(=O)O)nc(-c2cncs2)c1Cl [Compound 241, 4-Amino-3,5-dichloro-6-(5-thiazolyl)pyridine-2-carboxylic acid]
165 to 166 °C	Nc1cc(-c2c(F)cccc2F)nc(C(=O)O)c1Cl [Compound 169, 4-Amino-3-chloro-6-(2,6-difluorophenyl)pyridine-2-carboxylic acid]
155 to 156 °C	COC(=O)c1nc(-c2ccc3c(c2Cl)OCO3)cc(N)c1Cl [Compound 73, Methyl 4-amino-3-chloro-6-(2-chloro-3,4-methylenedioxyphenyl)pyridine-2-carboxylate]
188 to 189 °C	Cc1ccccc1-c1cc(N)c(Cl)c(C(=O)O)n1 [Compound 165, 4-Amino-3-chloro-6-(2-methylphenyl)pyridine-2-carboxylic acid]
152 to 154 °C	COC(=O)c1nc(-c2ccc(Cl)cc2OC)cc(N)c1Cl [Compound 68, Methyl 4-amino-3-chloro-6-(4-chloro-2-methoxyphenyl)pyridine-2-carboxylate]
166 to 170 °C	Nc1cc(-c2cnco2)nc(C(=O)O)c1Cl [Compound 231, 4-Amino-3-chloro-6-(5-oxazolyl)pyridine-2-carboxylic acid]
132 °C	COC(=O)c1nc(-c2cccs2)c(Cl)c(N)c1Cl [Compound 105, Methyl 4-amino-3,5-dichloro-6-(2-thienyl)pyridine-2-carboxylate]
156 °C	COC(=O)c1nc(-c2ccc(C)cc2)cc(NC(C)=O)c1Cl [Compound 83, Methyl 4-acetamido-3-chloro-6-(4-methylphenyl)pyridine-2-carboxylate]
139 to 140 °C	COC(=O)c1nc(-c2cccc(C#N)c2)cc(N)c1Cl [Compound 42, Methyl 4-amino-3-chloro-6-(3-cyanophenyl)pyridine-2-carboxylate]
195 to 196 °C	COC(=O)c1nc(-c2ccc3c(c2Cl)OCO3)cc(NC(C)=O)c1Cl [Compound 72, Methyl 4-acetamido-3-chloro-6-(2-chloro-3,4-methylenedioxyphenyl)pyridine-2-carboxylate]
162 to 163 °C	COC(=O)c1nc(-c2ccc(F)cc2Cl)cc(NC(C)=O)c1Cl [Compound 54, Methyl 4-acetamido-3-chloro-6-(2-chloro-4-fluorophenyl)pyridine-2-carboxylate]
143 °C	COC(=O)c1nc(-c2ccc3c(c2)CCO3)cc(N)c1Cl [Compound 77, Methyl 4-amino-3-chloro-6-(2,3-dihydro-5-benzofuranyl)pyridine-2-carboxylate]
185 to 187 °C	COC(=O)c1nc(-c2nccs2)c(F)c(N)c1Cl [Compound 113, Methyl 4-amino-3-chloro-5-fluoro-6-(2-thiazolyl)pyridine-2-carboxylate]
226 to 227 °C	Nc1cc(-c2ccc3c(c2Cl)OCO3)nc(C(=O)O)c1Cl [Compound 187, 4-Amino-3-chloro-6-(2-chloro-3,4-methylenedioxyphenyl)pyridine-2-carboxylic acid]
62 to 63 °C	CCCCCCCCCCOC(=O)c1nc(-c2ccc(Cl)cc2)c(F)c(N)c1Cl [Compound 244, Decyl 4-amino-3-chloro-5-fluoro-6-(4-chlorophenyl)pyridine-2-carboxylate]
117 °C	COC(=O)c1nc(-c2ccco2)cc(N)c1Cl [Compound 110, Methyl 4-amino-3-chloro-6-(2-furanyl)pyridine-2-carboxylate]
177 to 178 °C	COC(=O)c1nc(-c2cc3ccccc3s2)cc(N)c1Cl [Compound 125, Methyl 4-amino-3-chloro-6-(2-benzothienyl)pyridine-2-carboxylate]
92 to 93 °C	COC(=O)c1nc(-c2ccc(C(C)C)cc2)cc(N)c1Cl [Compound 35, Methyl 4-amino-3-chloro-6-(4-isopropylphenyl)pyridine-2-carboxylate]
204 to 205 °C	Nc1cc(-c2ccc3c(c2)CCC3)nc(C(=O)O)c1Cl [Compound 188, 4-Amino-3-chloro-6-(5-indanyl)pyridine-2-carboxylic acid]
187 to 195 °C	COC(=O)c1nc(-c2cc(Cl)c(C)cc2F)cc(NC(C)=O)c1Cl [Compound 78, Methyl 4-acetamido-3-chloro-6-(5-chloro-2-fluoro-4-methylphenyl)pyridine-2-carboxylate]
143 °C	COC(=O)c1nc(-c2cc(Cl)ccc2Cl)cc(NC(C)=O)c1Cl [Compound 57, Methyl 4-acetamido-3-chloro-6-(2,5-dichlorophenyl)pyridine-2-carboxylate]
106 to 108 °C	COC(=O)c1nc(-c2ccc(C=O)cc2)cc(N)c1Cl [Compound 41, Methyl 4-amino-3-chloro-6-(4-formylphenyl)pyridine-2-carboxylate]
182 to 183 °C	Nc1cc(-c2cc(F)cc(F)c2)nc(C(=O)O)c1Cl [Compound 167, 4-Amino-3-chloro-6-(3,5-difluorophenyl)pyridine-2-carboxylic acid]
142 to 143 °C	CC(C)c1ccc(-c2cc(N)c(Cl)c(C(=O)O)n2)cc1 [Compound 147, 4-Amino-3-chloro-6-(4-isopropylphenyl)pyridine-2-carboxylic acid]
224 °C	COC(=O)c1nc(-c2nc3ccccc3s2)cc(N)c1Cl [Compound 9, Methyl 4-amino-3-chloro-6-(2-benzthiazolyl)pyridine-2-carboxylate]
175 to 176 °C	Cc1ccc(-c2cc(N)c(Cl)c(C(=O)O)n2)s1 [Compound 218, 4-Amino-3-chloro-6-(5-methyl-2-thienyl)pyridine-2-carboxylic acid]
